Measurements published in ChEMBL document CHEMBL1136398, “Non-peptide alphavbeta3 antagonists. Part 6: design and synthesis of alphavbeta3 antagonists containing a pyridone or pyrazinone central scaffold” (Bioorg Med Chem Lett, 2003).
pIC50: −log10 of the molar value.

Tests used:
[1] = Protein binding in human plasma; format: ADME, cell-free; conditions: read-out: PB (converted)
[2] = Half-life in vivo in dog by intravenous administration at a dose of 0.2 mg/kg; format: ADME, organism-based, Canis lupus familiaris; set-up: dose 0.2 mg/kg, route intravenous
[3] = tested on: Canis familiaris; experiment: Plasma clearance in vivo in dog by intravenous administration at a dose of 0.2 mg/kg; format: ADME, organism-based, Canis lupus familiaris; set-up: dose 0.2 mg/kg, route intravenous
[4] = Half-life in vivo in dog by intravenous administration at a dose of 1 mg/kg; format: ADME, organism-based, Canis lupus familiaris; set-up: dose 1 mg/kg, route intravenous
[5] = molecular target: T1, Integrin alpha-V/beta-3 (Homo sapiens, UniProt P05106+P06756); experiment: Inhibitory activity against human alphaV-beta3 integrin using SPAV3 assay; format: protein-complex assay
T1 sequence (P05106 27-788 limits assumed): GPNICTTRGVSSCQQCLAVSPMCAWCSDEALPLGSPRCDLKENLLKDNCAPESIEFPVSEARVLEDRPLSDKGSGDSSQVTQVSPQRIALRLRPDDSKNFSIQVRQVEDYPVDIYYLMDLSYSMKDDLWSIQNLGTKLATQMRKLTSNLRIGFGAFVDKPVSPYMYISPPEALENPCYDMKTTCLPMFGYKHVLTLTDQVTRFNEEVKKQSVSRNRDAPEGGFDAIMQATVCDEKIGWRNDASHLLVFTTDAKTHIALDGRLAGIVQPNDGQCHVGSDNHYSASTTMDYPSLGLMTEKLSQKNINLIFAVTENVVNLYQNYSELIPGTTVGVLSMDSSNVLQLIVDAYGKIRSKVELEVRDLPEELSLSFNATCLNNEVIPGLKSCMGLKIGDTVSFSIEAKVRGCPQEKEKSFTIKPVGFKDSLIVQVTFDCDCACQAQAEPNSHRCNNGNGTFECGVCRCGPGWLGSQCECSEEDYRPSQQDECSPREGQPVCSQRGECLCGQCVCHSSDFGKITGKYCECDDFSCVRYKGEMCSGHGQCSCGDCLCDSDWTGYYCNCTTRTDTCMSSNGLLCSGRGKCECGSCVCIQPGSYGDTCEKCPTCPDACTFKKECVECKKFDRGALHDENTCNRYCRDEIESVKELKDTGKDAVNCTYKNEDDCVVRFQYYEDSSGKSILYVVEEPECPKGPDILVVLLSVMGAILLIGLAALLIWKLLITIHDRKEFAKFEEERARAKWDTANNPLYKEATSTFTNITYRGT
T1 sequence (P06756 31-889 limits assumed): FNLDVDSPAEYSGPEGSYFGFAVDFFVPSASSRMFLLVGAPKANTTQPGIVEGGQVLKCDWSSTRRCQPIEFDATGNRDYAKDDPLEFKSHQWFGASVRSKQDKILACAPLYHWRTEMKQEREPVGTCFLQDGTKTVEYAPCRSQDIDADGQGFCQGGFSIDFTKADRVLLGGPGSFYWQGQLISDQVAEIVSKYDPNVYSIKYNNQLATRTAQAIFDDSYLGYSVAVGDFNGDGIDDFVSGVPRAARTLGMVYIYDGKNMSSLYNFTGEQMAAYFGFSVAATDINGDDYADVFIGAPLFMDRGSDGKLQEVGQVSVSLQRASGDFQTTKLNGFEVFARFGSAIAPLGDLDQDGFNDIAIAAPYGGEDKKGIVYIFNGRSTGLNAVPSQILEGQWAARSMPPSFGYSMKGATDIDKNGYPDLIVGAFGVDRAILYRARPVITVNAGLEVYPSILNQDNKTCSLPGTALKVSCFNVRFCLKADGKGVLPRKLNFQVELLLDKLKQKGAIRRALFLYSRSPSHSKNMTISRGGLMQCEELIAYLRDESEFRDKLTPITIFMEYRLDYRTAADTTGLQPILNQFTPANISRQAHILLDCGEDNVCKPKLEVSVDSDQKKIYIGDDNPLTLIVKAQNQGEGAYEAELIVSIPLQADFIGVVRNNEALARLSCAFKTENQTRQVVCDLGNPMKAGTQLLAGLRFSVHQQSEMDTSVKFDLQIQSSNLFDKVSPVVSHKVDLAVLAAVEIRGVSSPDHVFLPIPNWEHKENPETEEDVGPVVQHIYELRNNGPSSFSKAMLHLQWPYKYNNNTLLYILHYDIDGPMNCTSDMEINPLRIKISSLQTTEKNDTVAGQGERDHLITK
T1 sequence (P06756 891-1048 limits assumed): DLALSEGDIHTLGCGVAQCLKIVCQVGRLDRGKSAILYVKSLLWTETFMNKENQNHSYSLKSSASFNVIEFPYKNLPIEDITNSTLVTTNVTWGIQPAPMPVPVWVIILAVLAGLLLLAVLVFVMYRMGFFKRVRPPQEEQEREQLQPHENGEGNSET

[6] = Partition coefficient (logP); format: physicochemical; conditions: octanol/water
[7] = tested on: Canis familiaris; experiment: Plasma clearance in vivo in dog by intravenous administration at a dose of 1 mg/kg; format: ADME, organism-based, Canis lupus familiaris; set-up: dose 1 mg/kg, route intravenous
[8] = molecular target: T1, Integrin alpha-V/beta-3; experiment: Inhibitory activity against human alpha V beta3 receptor using SPAV3 assay; format: protein-complex assay
[9] = Oral bioavailability in dog (dose 1 mg/kg i.v.); format: ADME, organism-based, Canis lupus familiaris; conditions: in vivo
[10] = Oral bioavailability in dog (dose 0.2 mg/kg i.v.); format: ADME, organism-based, Canis lupus familiaris; conditions: in vivo

| fraction unbound [1] | half-life [2] | Cl [3] | half-life [4] | pIC50 [5] | logP [6] | Cl [7] | pIC50 [8] | bioavailability [9] | bioavailability [10] | Structure (SMILES) |
| --- | --- | --- | --- | --- | --- | --- | --- | --- | --- | --- |
| 0.088 | 0.8 h | 21 mL/min/kg | 0.8 h | 9.00 | -1.46 | 21 mL/min/kg |  |  |  | Cc1ccc(NCc2ccc3c(n2)NCCC3)c(=O)n1CC(=O)N[C@@H](CC(=O)O)c1cccnc1 |
|  |  |  |  |  | 1.1 |  | 8.57 |  |  | O=C(O)C[C@H](NC(=O)Cn1c(C2CC2)c(Cl)nc(NCc2ccc3c(n2)NCCC3)c1=O)c1cccc(F)c1 |
| 0.446 | 1 h |  | 1 h |  |  |  | 9.40 |  |  | O=C(O)C[C@H](NC(=O)CN1CC[C@H](CCc2ccc3c(n2)NCCC3)C1=O)c1cccnc1 |
|  |  |  |  | 8.05 | -0.97 |  |  |  |  | C#C[C@H](CC(=O)O)NC(=O)Cn1c(C2CC2)ccc(NCc2ccc3c(n2)NCCC3)c1=O |
| 0.025 | 1.1 h | 26 mL/min/kg | 1.1 h |  | 0.15 | 26 mL/min/kg | 8.85 | 0.3% | 0.3% | O=C(O)C[C@H](NC(=O)Cn1c(C2CC2)cnc(NCc2ccc3c(n2)NCCC3)c1=O)c1cccc(F)c1 |
|  |  |  |  |  | -0.31 |  | 8.96 |  |  | Cc1cnc(NCc2ccc3c(n2)NCCC3)c(=O)n1CC(=O)N[C@@H](CC(=O)O)c1cccc(F)c1 |
|  |  |  |  | 9.70 | -0.8 |  |  |  |  | O=C(O)C[C@H](NC(=O)Cn1c(C2CC2)ccc(NCc2ccc3c(n2)NCCC3)c1=O)c1cccnc1 |
| 0.028 | 1.4 h | 22 mL/min/kg | 1.4 h |  | -0.47 | 22 mL/min/kg | 8.72 | 4.3% | 4.3% | CCc1cnc(NCc2ccc3c(n2)NCCC3)c(=O)n1CC(=O)N[C@@H](CC(=O)O)c1cccc(F)c1 |

The remaining lines, values behind:

| Structure (SMILES) | fraction unbound [1] | half-life [2] | Cl [3] | half-life [4] | pIC50 [5] | logP [6] | Cl [7] | pIC50 [8] | bioavailability [9] | bioavailability [10] |
| --- | --- | --- | --- | --- | --- | --- | --- | --- | --- | --- |
| O=C(O)C[C@H](NC(=O)Cn1cccc(NCc2ccc3c(n2)NCCC3)c1=O)c1cccnc1 |  |  |  |  | 8.85 | 1.55 |  |  |  |  |
| O=C(O)C[C@H](NC(=O)Cn1c(C2CC2)c(Cl)nc(NCc2ccc3c(n2)NCCC3)c1=O)c1cnc2ccccc2c1 |  |  |  |  |  | 1.12 |  | 9.15 |  |  |
| O=C(O)C[C@H](NC(=O)Cc1cccc(CCc2ccc3c(n2)NCCC3)c1)c1cccnc1 |  |  |  |  |  |  |  | 7.68 |  |  |
| Cc1c(Cl)nc(NCc2ccc3c(n2)NCCC3)c(=O)n1CC(=O)N[C@@H](CC(=O)O)c1cccc(F)c1 | 0.015 | 2.1 h | 28 mL/min/kg | 2.1 h |  | 0.61 | 28 mL/min/kg | 8.68 |  |  |
| Cc1cnc(NCc2ccc3c(n2)NCCC3)c(=O)n1CC(=O)N[C@@H](CC(=O)O)c1cccnc1 |  |  |  |  | 9.10 |  |  |  |  |  |
| O=C(O)C[C@H](NC(=O)Cn1c(C2CC2)ccc(NCc2ccc3c(n2)NCCC3)c1=O)c1cccc(F)c1 | 0.006 | 0.8 h | 20 mL/min/kg | 0.8 h | 9.10 | 0.54 | 20 mL/min/kg |  | 3% | 3% |
| O=C(O)C[C@H](NC(=O)Cn1c(-c2ccccc2)c(Cl)nc(NCc2ccc3c(n2)NCCC3)c1=O)c1cccc(F)c1 |  |  |  |  |  | 1.6 |  | 6.95 |  |  |
| O=C(O)C[C@H](NC(=O)Cn1c(C2CC2)cnc(NCc2ccc3c(n2)NCCC3)c1=O)c1cccnc1 |  |  |  |  |  | 0.25 |  | 9.70 |  |  |
| O=C(O)C[C@H](NC(=O)Cn1c(C2CC2)cnc(NCc2ccc3c(n2)NCCC3)c1=O)c1ccc2c(c1)OCO2 | 0.025 | 1.1 h | 26 mL/min/kg | 1.1 h |  | -0.1 | 26 mL/min/kg | 9.70 | 0.3% | 0.3% |
| CCCc1ccc(NCc2ccc3c(n2)NCCC3)c(=O)n1CC(=O)N[C@@H](CC(=O)O)c1cccnc1 |  |  |  |  | 8.85 | -0.48 |  |  |  |  |
| O=C(O)C[C@H](NC(=O)Cn1c(C2CC2)c(Cl)nc(NCc2ccc3c(n2)NCCC3)c1=O)c1ccc2c(c1)OCC2 |  |  |  |  |  | 0.9 |  | 9.70 |  |  |
| O=C(O)C[C@H](NC(=O)Cc1ccc(CCc2ccc3c(n2)NCCC3)s1)c1cccnc1 |  |  |  |  | 6.61 |  |  |  |  |  |
| CCc1c(Cl)nc(NCc2ccc3c(n2)NCCC3)c(=O)n1CC(=O)N[C@@H](CC(=O)O)c1cccc(F)c1 |  |  |  |  |  | 1.3 |  | 8.03 |  |  |
| O=C(O)C[C@H](NC(=O)Cn1c(C2CC2)ccc(NCc2ccc3c(n2)NCCC3)c1=O)c1ccc2c(c1)OCC2 |  |  |  |  | 9.70 | 0.28 |  |  |  |  |
| O=C(O)C[C@H](NC(=O)Cn1c(C2CC2)c(Cl)nc(NCc2ccc3c(n2)NCCC3)c1=O)c1cccnc1 |  |  |  |  |  | -0.26 |  | 9.52 |  |  |
